# Reference: patent US20260092074A1, “Annelated Pyridines as Steroidogenesis Inhibitors, Preparation Method and Use Thereof” (Guangzhou Vinnocent Pharmaceutical Limited, priority 2022, published 2026)
# Legend:
# [1] = target: T1, human CYP11B1 (Homo sapiens, UniProt P15538); experiment: Inhibition of hCYP11B1 in transfected V79 cells; type: cell-based; details: hamster V79 cells expressing human CYP11B1; substrate 11-deoxycortisol 200 nM
# T1 construct: expressed in transfected cells
# T1 sequence (P15538 25-503): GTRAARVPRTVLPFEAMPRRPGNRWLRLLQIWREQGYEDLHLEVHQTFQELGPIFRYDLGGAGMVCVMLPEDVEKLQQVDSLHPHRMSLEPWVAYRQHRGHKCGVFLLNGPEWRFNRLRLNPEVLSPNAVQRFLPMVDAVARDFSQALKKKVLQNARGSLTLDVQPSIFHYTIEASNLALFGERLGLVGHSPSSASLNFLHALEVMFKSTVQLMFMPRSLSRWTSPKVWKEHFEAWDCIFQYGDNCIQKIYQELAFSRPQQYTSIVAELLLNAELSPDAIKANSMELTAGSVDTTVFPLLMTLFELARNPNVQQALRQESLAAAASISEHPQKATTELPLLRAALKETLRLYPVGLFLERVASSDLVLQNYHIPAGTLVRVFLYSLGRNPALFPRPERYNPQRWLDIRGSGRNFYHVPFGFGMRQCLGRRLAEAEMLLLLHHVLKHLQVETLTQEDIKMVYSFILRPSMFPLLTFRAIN
# How it was run: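 Reactions started with 200 nM 11-deoxycortisol, ran for 30 min and were stopped with ethyl acetate, after a 2 h compound preincubation. The host was stably transfected V79 hamster cells carrying human CYP11B1 plus rat P450 reductase. Percent inhibition, from LC-MS/MS or HPLC (260 nm) quantitation of substrate and product, gave the IC50.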
# [2] = target: T2, human CYP11B2 (Homo sapiens, UniProt P19099); experiment: Inhibition of hCYP11B2 in transfected V79 cells; type: cell-based; details: hamster V79 cells expressing human CYP11B2; substrate 11-deoxycorticosterone 200 nM
# T2 construct: expressed in transfected cells
# T2 sequence (P19099 25-503): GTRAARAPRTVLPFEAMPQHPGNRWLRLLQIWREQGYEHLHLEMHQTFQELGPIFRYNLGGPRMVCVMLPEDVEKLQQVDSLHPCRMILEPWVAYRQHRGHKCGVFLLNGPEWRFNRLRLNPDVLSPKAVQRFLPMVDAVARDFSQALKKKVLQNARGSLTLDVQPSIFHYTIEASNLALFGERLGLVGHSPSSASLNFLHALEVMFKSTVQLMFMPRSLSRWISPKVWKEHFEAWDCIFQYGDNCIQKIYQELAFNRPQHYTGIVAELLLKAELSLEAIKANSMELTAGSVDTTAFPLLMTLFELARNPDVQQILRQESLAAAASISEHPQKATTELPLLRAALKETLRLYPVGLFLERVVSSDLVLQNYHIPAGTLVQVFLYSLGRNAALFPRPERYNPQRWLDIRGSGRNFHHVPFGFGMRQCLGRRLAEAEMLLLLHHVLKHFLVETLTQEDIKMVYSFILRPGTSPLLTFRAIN
# How it was run: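 The substrate (200 nM, 30 min) was added after a 2 hour compound pre-incubation in lentivirus-transduced V79 cells stably expressing human CYP11B2 plus rat NADPH-P450 reductase.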
IC50 [1] [nM],IC50 [2] [nM],Compound
3580,52,"N#CN1CC2(C1)CN(c1cncc3c1OCCN3C(=O)C1CN(Cc3cccc(F)c3)C1)C2 [O134, 6-(4-(1-(3-Fluorobenzyl)azetidine-3-carbonyl)-3,4-dihydro-2H-pyrido[4,3-b][1,4]oxazin-8-yl)-2,6-diazaspiro[3.3]heptane-2-carbonitrile]"
4130,66,"O=C(C1CN(Cc2cccc(F)c2)C1)N1CCOc2c(N3CCn4cnnc4C3)cncc21 [O135, (8-(5,6-Dihydro-[1,2,4]triazolo[4,3-a]pyrazin-7 (8H)-yl)-2,3-dihydro-4H-pyrido[4,3-b][1,4]oxazin-4-yl)(1-(3-fluorobenzyl)azetidin-3-yl)methanone]"
2020,22,"N#Cc1ccc(-c2cncc3c2OCCN3C(=O)N2CC(Cc3cccc(F)c3)C2)cc1 [O136, 4-(4-(3-(3-Fluorobenzyl)azetidine-1-carbonyl)-3,4-dihydro-2H-pyrido[4,3-b][1,4]oxazin-8-yl)benzonitrile]"
3960,57,"O=C(C1CN(Cc2cccc(F)c2)C1)N1CCOc2c(N3CCn4ccnc4C3)cncc21 [O137, (8-(5,6-Dihydroimidazo[1,2-a]pyrazin-7 (8H)-yl)-2,3-dihydro-4H-pyrido[4,3-b][1,4]oxazin-4-yl)(1-(3-fluorobenzyl)azetidin-3-yl)methanone]"
> 5000,451,"N#Cc1ccc(-c2cncc3c2SCCN3Cc2cccc(F)c2)cc1 [S1, 4-(4-(3-Fluorobenzyl)-3,4-dihydro-2H-pyrido[4,3-b][1,4]thiazin-8-yl)benzonitrile]"
> 5000,473,"N#Cc1ccc(-c2cncc3c2SCCN3Cc2ccc(F)cc2)cc1 [S2, 4-(4-(4-Fluorobenzyl)-3,4-dihydro-2H-pyrido[4,3-b][1,4]thiazin-8-yl)benzonitrile]"
> 5000,243,"N#Cc1ccc(-c2cncc3c2SCCN3Cc2cccc([N+](=O)[O-])c2)cc1 [S3, 4-(4-(3-Nitrobenzyl)-3,4-dihydro-2H-pyrido[4,3-b][1,4]thiazin-8-yl)benzonitrile]"
1370,34.8,"N#Cc1ccc(-c2cncc3c2SCCN3C(=O)c2cccc(F)c2)cc1 [S4, 4-(4-(3-Fluorobenzoyl)-3,4-dihydro-2H-pyrido[4,3-b][1,4]thiazin-8-yl)benzonitrile]"
2980,21,"N#Cc1ccc(-c2cncc3c2SCCN3C(=O)c2ccc(F)cc2)cc1 [S5, 4-(4-(4-Fluorobenzoyl)-3,4-dihydro-2H-pyrido[4,3-b][1,4]thiazin-8-yl)benzonitrile]"
1740,53,"COc1ccc(C(=O)N2CCSc3c(-c4ccc(C#N)cc4)cncc32)cc1 [S6, 4-(4-(4-Methoxybenzoyl)-3,4-dihydro-2H-pyrido[4,3-b][1,4]thiazin-8-yl)benzonitrile]"
4390,88,"N#Cc1ccc(-c2cncc3c2SCCN3C(=O)c2cccnc2)cc1 [S7, 4-(4-Nicotinoyl-3,4-dihydro-2H-pyrido[4,3-b][1,4]thiazin-8-yl)benzonitrile]"
1.5,0.1,"N#Cc1ccc(-c2cncc3c2SCCN3S(=O)(=O)c2ccccc2)cc1 [S8, 4-(4-(Phenylsulfonyl)-3,4-dihydro-2H-pyrido[4,3-b][1,4]thiazin-8-yl)benzonitrile]"
0.7,0.2,"N#Cc1ccc(-c2cncc3c2SCCN3S(=O)(=O)c2cccc(F)c2)cc1 [S9, 4-(4-((3-Fluorophenyl)sulfonyl)-3,4-dihydro-2H-pyrido[4,3-b][1,4]thiazin-8-yl)benzonitrile]"
0.8,0.1,"N#Cc1ccc(-c2cncc3c2SCCN3S(=O)(=O)c2ccc(F)cc2)cc1 [S10, 4-(4-((4-Fluorophenyl)sulfonyl)-3,4-dihydro-2H-pyrido[4,3-b][1,4]thiazin-8-yl)benzonitrile]"
2.1,0.15,"Cc1cccc(S(=O)(=O)N2CCSc3c(-c4ccc(C#N)cc4)cncc32)c1 [S11, 4-(4-(m-Tolylsulfonyl)-3,4-dihydro-2H-pyrido[4,3-b][1,4]thiazin-8-yl)benzonitrile]"
2.8,0.18,"Cc1ccc(S(=O)(=O)N2CCSc3c(-c4ccc(C#N)cc4)cncc32)cc1 [S12, 4-(4-Tosyl-3,4-dihydro-2H-pyrido[4,3-b][1,4]thiazin-8-yl)benzonitrile]"
1.2,0.1,"COc1ccc(S(=O)(=O)N2CCSc3c(-c4ccc(C#N)cc4)cncc32)cc1 [S13, 4-(4-((4-Methoxyphenyl)sulfonyl)-3,4-dihydro-2H-pyrido[4,3-b][1,4]thiazin-8-yl)benzonitrile]"
4.8,0.25,"N#Cc1ccc(-c2cncc3c2SCCN3S(=O)(=O)c2cccc(Cl)c2)cc1 [S14, 4-(4-((3-Chlorophenyl)sulfonyl)-3,4-dihydro-2H-pyrido[4,3-b][1,4]thiazin-8-yl)benzonitrile]"
2.2,0.05,"N#Cc1ccc(-c2cncc3c2SCCN3S(=O)(=O)c2ccc(Cl)cc2)cc1 [S15, 4-(4-((4-Chlorophenyl)sulfonyl)-3,4-dihydro-2H-pyrido[4,3-b][1,4]thiazin-8-yl)benzonitrile]"
12,1.05,"N#Cc1ccc(-c2cncc3c2SCCN3S(=O)(=O)c2cccc(C(F)(F)F)c2)cc1 [S16, 4-(4-((3-(Trifluoromethyl)phenyl)sulfonyl)-3,4-dihydro-2H-pyrido[4,3-b][1,4]thiazin-8-yl) benzonitrile]"
10.2,0.4,"N#Cc1ccc(-c2cncc3c2SCCN3S(=O)(=O)c2ccc(C(F)(F)F)cc2)cc1 [S17, 4-(4-((4-(Trifluoromethyl)phenyl)sulfonyl)-3,4-dihydro-2H-pyrido[4,3-b][1,4]thiazin-8-yl) benzonitrile]"
2,0.1,"N#Cc1ccc(-c2cncc3c2SCCN3S(=O)(=O)c2cccc([N+](=O)[O-])c2)cc1 [S18, 4-(4-((3-Nitrophenyl)sulfonyl)-3,4-dihydro-2H-pyrido[4,3-b][1,4]thiazin-8-yl)benzonitrile]"
1.2,0.1,"N#Cc1ccc(-c2cncc3c2SCCN3S(=O)(=O)c2ccc([N+](=O)[O-])cc2)cc1 [S19, 4-(4-((4-Nitrophenyl)sulfonyl)-3,4-dihydro-2H-pyrido[4,3-b][1,4]thiazin-8-yl)benzonitrile]"
3.1,0.1,"N#Cc1ccc(-c2cncc3c2SCCN3S(=O)(=O)c2cccc(C#N)c2)cc1 [S20, 3-((8-(4-Cyanophenyl)-2,3-dihydro-4H-pyrido[4,3-b][1,4]thiazin-4-yl)sulfonyl)benzonitrile]"
15,0.3,"N#Cc1ccc(-c2cncc3c2SCCN3S(=O)(=O)c2ccc(C#N)cc2)cc1 [S21, 4-((8-(4-Cyanophenyl)-2,3-dihydro-4H-pyrido[4,3-b][1,4]thiazin-4-yl)sulfonyl)benzonitrile]"
51,5.2,"N#Cc1ccc(-c2cncc3c2SCCN3S(=O)(=O)c2cccc3ccccc23)cc1 [S22, 4-(4-(Naphthalen-1-ylsulfonyl)-3,4-dihydro-2H-pyrido[4,3-b][1,4]thiazin-8-yl)benzonitrile]"
1.9,0.2,"N#Cc1ccc(-c2cncc3c2SCCN3S(=O)(=O)c2ccc3ccccc3c2)cc1 [S23, 4-(4-(Naphthalen-2-ylsulfonyl)-3,4-dihydro-2H-pyrido[4,3-b][1,4]thiazin-8-yl)benzonitrile]"
1.1,0.13,"N#Cc1ccc(-c2cncc3c2SCCN3S(=O)(=O)c2cccs2)cc1 [S24, 4-(4-(Thiophen-2-ylsulfonyl)-3,4-dihydro-2H-pyrido[4,3-b][1,4]thiazin-8-yl)benzonitrile]"
1.82,0.04,"N#Cc1ccc(-c2cncc3c2SCCN3S(=O)(=O)c2cccnc2)cc1 [S25, 4-(4-(Pyridin-3-ylsulfonyl)-3,4-dihydro-2H-pyrido[4,3-b][1,4]thiazin-8-yl)benzonitrile]"
28,0.86,"N#Cc1ccc(-c2cncc3c2SCCN3S(=O)(=O)c2cccc3cccnc23)cc1 [S26, 4-(4-(Quinolin-8-ylsulfonyl)-3,4-dihydro-2H-pyrido[4,3-b][1,4]thiazin-8-yl)benzonitrile]"
